Experiments:
MDBK cells = assay: Cytotoxicity assay (MTT) on MDBK cells; assay type: cell-based, bovine; conditions: 32, 16, 8 µg/mL; MTT test
Protocol: The cytotoxicity assay was performed using the 3-(4,5-dimethylthiazol-2-yl)-2,5-diphenyltetrazolium bromide (MTT) test, following the procedure used by Donofrio et al.. MDBK cells were cultured on microtiter tissue culture plates in DMEM medium for 24 h at 37 °C in the presence of 5% CO2. After incubation, when the cell monolayer was at confluence, an aliquot of 1 µL of UPAR415 in DMSO at different concentrations was added in each well, containing a volume of 100 µL of DMEM medium and MDBK cells, and then the plates were reincubated at the same conditions. After incubation, 10 µL of MTT at 200 mg/mL (3-(4,5-dimethylthiazol-2-yl)-2,5-diphenyltetrazolium bromide) was added to each well and incubated at 37 °C for 6 h. At the end of the incubation, 100 µL of the solubilization solution (10% SDS in 0.01 M HCl) was added to each well and then incubated overnight. The MTT compound, a yellow tetrazolium salt, is reduced by mitochondrial enzymes (succinate dehydrogenase) of metabolically active eukaryotic cells to insoluble formazan crystals. In the presence of metabolically active cells, after the addition of a detergent solution (10% SDS in […]) that allows the formazan to be released from the cells, a violet color is seen in the medium. Instead, in the presence of non-viable cells, MTT is not reduced to formazan and therefore the solution will remain yellow.
After incubation, plates were read with a spectrophotometer at 620 nm. Positive controls (PC)—without any compounds—and PCs with 1% DMSO were performed for each plate and three replicates for two independent experiments were performed for each assay.

S. Typhimurium DW378 = assay: Target engagement: MIC of 12h and colistin in cysK/cysM-inactive mutant strain; assay type: cell-based, Salmonella enterica serovar Typhimurium
Protocol: In this regard, compound 12h has been selected because of its favorable overall properties. It has been tested at a concentration of 32 μg/mL, in order to ensure complete inactivation of both the OASS isoforms. […] The MIC assays of 12h and colistin alone on the DW378 strain have been performed and they have been compared with those obtained on the WT strain. […] But, on the other hand, the MIC value of colistin was […] lower on the mutant strain than that on the WT, a result that overlapped those achieved with the association of colistin and 12h in WT cells.
MIC values were evaluated following CLSI guidelines with some modifications, as referred to in previous work. Twofold dilutions 25.6–0.05 mg/mL of the tested compounds were performed in DMSO in separate 96-well microtiter U-plates (Greiner, Milan, Italy). In a different 96-well microtiter U-plate, for each well of the replicates, 49 µL of broth medium were added. Then, in each well of the plate, one microliter of each compound at variable dilution in DMSO was added. For each test, three independent experiments with three replicates each were performed.
Antimicrobial activity of associations between the different compounds and colistin (Sigma-Aldrich, St. Louis, MO, USA, lot n. 049M-4836 V) was tested with checkerboard assay with minor modifications, as mentioned in the previous work. For each assay, three experiments with three replicates each were assessed. For each compound tested concentration, 96-wells microtiter U-plates were prepared with twofold serial dilutions of colistin in MHB starting from the MIC value (µg/mL) for ten consecutive dilutions in 50 µL of broth. In each well of the same replicate, 1 µL of each compound in DMSO was added at a fixed concentration, 100 times higher than the final desired concentration (3.2; 1.6; 0.8 mg/mL). Subsequently, 49 µL of the bacterial suspension at a concentration of 10^6 CFU/mL, adjusted spectrophotometrically as reported above, was added to each well, reaching the final bacterial concentration of 5 × 10^5 CFU/mL. Growth and sterility controls were performed for each experiment and for each replicate. Finally, the plates were incubated at 37 °C in aerobic atmosphere for 24 h. After incubation, plates were read by unaided eye with a microtiter reading mirror and then the OD of each well of the plates was measured spectrophotometrically at 620 nm. MIC values were calculated as the arithmetic mean ± SD of the unaided eye reading and the inhibition of growth for each tested dilution was calculated from the OD values (mean ± SD).
* This strain is defective for the expression of cysK and cysM genes, encoding for isozymes OASS-A and B. The genotypes of this strain are trpC109, cysK1772, and cysM1770. […]

Row | Structure (SMILES) | Toxicity on viability of MDBK cells (MDBK cells) | MIC (S. Typhimurium DW378; Salmonella enterica, TYPHIMURIUM, 12 h, read-out: MIC 12h (μg/mL)) [µg/mL] | MIC Colistin (S. Typhimurium DW378; colistin in combination with 12h at 32 μg/mL, DW378 mutant strain) [µg/mL]
1 | CCOC(=O)C1(Cc2ccc(C)cc2)CC1c1cccc(N2CC(C)OC(C)C2)c1 (stereo not drawn) [Compound 12h, trans-ethyl 2-(3-(2,6-dimethylmorpholino)phenyl)-1-(4-methylbenzyl)cyclopropanecarboxylate] | lowest toxicity profile | > 512 | 0.141 ± 0.09
2 | Cc1ccc(CC2(C(=O)O)CC2c2cccc(N3CC(C)OC(C)C3)c2)cc1 (stereo not drawn) [Compound 13h, trans-2-(3-(2,6-dimethylmorpholino)phenyl)-1-(4-methylbenzyl)cyclopropanecarboxylic acid] | lowest toxicity profile |  | 
